Assay results: patent US11596716B2, “Compounds and matrices for use in bone growth and repair” (Human BioMolecular Research Institute, priority 2013, dated 2023)
Read-outs that look alike come from different tables or passages of the source.

Experiments:
[1] = system: C2C12 cells; assay: Alkaline Phosphatase (ALP) functional activity assay in C2C12 cells; format: cell-based, Mouse; conditions: normalized to DMSO treatment; for activation at 0.5 µM: Mus musculus, C2C12, 144 h
Experimental: Alkaline Phosphatase (ALP) Functional Activity Assay: C2C12 cells were plated into 12-well plates with 7,000 cells/well in 1 mL growth media. […] 1, 2, 3, or 4 in 0.1% DMSO was added (500 nM). Half the media was exchanged with fresh media containing compound every 48 hrs. After 6 days, media was removed, ALP Lysis Buffer (10 mM Tris-HCl pH 8.0, 1 mM MgCl2, and 1% Triton X100) added, and cell lysate obtained (10 min incubation at RT) by centrifugation (5 min at 3500× g at 4° C.). Para-nitrophenol phosphate (pNPP) (2 mg/mL) was incubated with 50 μl cell lysate (10 mins, 37° C.). After addition of […] 0.02 N NaOH, absorbance OD405 was measured. Protein concentration was determined by Bradford protein assay. Results of ALP activity were plotted as nM pNP hydrolyzed/mg total protein. After normalizing control samples (i.e., DMSO-treated samples) to one-fold, the fold-changes were plotted to indicate the relative ALP activity. […] This protocol was applied to hMSC and E15 cells as well.

[2] = system: hMSCs; assay: qPCR of target gene mRNA expression in hMSCs; format: cell-based, human; conditions: hMSCs, comparison with compound 3 and calcium phosphate ceramic
Experimental: qPCR detection of osteogenic markers: Cells were cultured with compound in the presence or absence of matrix as described above, but using 96-well plate format. Total RNA was extracted from cells (as above) using Trizol. cDNA was made using 750 ng of total RNA with Bio-Rad iscript kit and was diluted 20-fold before being used for qPCR. qPCR was conducted under the following conditions: 95° C., 2 min; 95° C., 10 s and 60° C., 45 s for 40 cycles; 60° C. for 71 cycles for melt curve. qPCR results were analyzed by the ΔΔCt method. 18s rRNA was used as an internal standard. This protocol was applied to hMSC and E15 cells.
Runx2 and BMP-2 are osteogenic markers; Axin2, Wnt3a, and Sox 9 are Wnt-inducible gene markers.
The assay for mRNA expression followed the same procedure with hMSCs as described for C2C12 cells (Example 7).

[3] = system: Wnt transcription; assay: WNT transcriptional reporter assay (Super(8×)TOPflash luciferase, HEK293T cells); format: cell-based; conditions: Wnt3A-expressing vector, 20 hrs, relative to cells treated with DMSO alone, read-out: Wnt transcription potency
Source text: Commercially available Super(8×)TOPflash vector driven by a (7×) TCF-firefly luciferase response element was transiently transfected into HEK293T cells, together with a TK-driven Renilla luciferase plasmid as an internal control to normalize the luminescence signal and a Wnt3A-expressing vector as the source of pathway activation. HEK293T cells were transfected with plasmids in DMEM plus 10% fetal bovine serum (FBS) for 8 hr, replated to 96-well plates in DMEM plus 10% FBS followed by treatment with compounds (1.6 nM to 5 M) (DMSO final concentration is 0.5%) for 20 hrs. Firefly and Renilla luciferase activities were measured and normalized by the Renilla luciferase values.

[4] = compounds of Formula VI, absence of matrix
[5] = compounds of Formula VI, presence of calcium phosphate matrix
[6] = compounds of Formula II or IV, absence of matrix
[7] = compounds of Formula II or IV, presence of calcium phosphate matrix

Row | Structure (SMILES) | activation at 0.5 µM [1, 4] | activation at 0.5 µM [1, 5] | activation at 0.5 µM [1, 6] | activation at 0.5 µM [1, 7] | also measured
1 | COc1cc(C=CC(=O)C=C(O)C=Cc2ccc(O)c(OC)c2)ccc1O [Compound 38, 1,7-Bis(4-hydroxy-3-methoxyphenyl)-5-hydroxy-hepta-1,4,6-trien-3-one] | 5 to 50% | > 100% |  |  | robust mRNA up-regulation of VDR or ALP [2]: not observed
2 | Cc1nc2c(-c3ccccc3)cnn2c(N2CCN(C)CC2)c1C [Compound 31, 3-phenyl-5,6-dimethyl-7-(N-methyl-N-piperazinyl)-pyrazolo[1,5-a]pyrimidine] |  |  |  |  | EC50 [3]: 0.015 to 0.04 µM; ALP activity −matrix [1, 6]: + (5-50%); ALP activity +matrix [1, 7]: + (5-50%)
3 | Cc1nc2c(-c3ccccc3)cnn2c(NCCC(C)C)c1C [Compound 32, 3-phenyl-5,6-dimethyl-7-[N-(3-methylbutyl)amino]-pyrazolo[1,5-a]pyrimidine] |  |  | < 5% | < 5% | EC50 ([3]; Homo sapiens, HEK-293T): > 0.04 µM
4 | CN(C)c1ccc(C=CC(=O)C=C(O)C=Cc2ccc(N(C)C)cc2)cc1 [Compound 47, 1,7-Bis-(4-dimethylaminophenyl)-5-hydroxy-hepta-1,4,6-trien-3-one] | > 100% | < 5% |  |  | 
5 | Cc1ccc(N[C@H]2C[C@H](C)Nc3ccc(C)cc32)cc1 (relative stereo) [Compound 6, trans-2,6-dimethyl-N-(p-methylphenyl)-1,2,3,4-tetrahydroquinolin-4-amine] |  |  | 50 to 100% | < 5% | 
6 | CC(=O)N1c2ccc(F)cc2[C@@H](Nc2ccc(F)cc2)C[C@@H]1C (relative stereo) [Compound 22, trans-1-acetyl-2-methyl-6-fluoro-N-(p-fluorophenyl)-1,2,3,4-tetrahydroquinolin-4-amine] |  |  | 5 to 50% | < 5% | 
7 | C[C@H]1C[C@H](Nc2ccccc2)c2ccccc2N1 (relative stereo) [Compound 8, trans-2-methyl-N-phenyl-1,2,3,4-tetrahydroquinolin-4-amine] |  |  | 5 to 50% | 5 to 50% | 
8 | CC(=O)N1c2ccc(C)cc2[C@@H](Nc2ccc(C)cc2)C[C@@H]1C (relative stereo) [Compound 13, trans-1-acetyl-2,6-dimethyl-N-(p-methylphenyl)-1,2,3,4-tetrahydroquinolin-4-amine] |  |  | > 100% | < 5% | 
9 | O=C(C=Cc1ccc(O)cc1)C1CCCC(=Cc2ccc(O)cc2)C1=O (centres unmarked) [Compound 55, 2-(4-Hydroxybenzylidene)-6-(3-(4-hydroxyphenyl)acryloyl)-cyclohexanone] | 5 to 50% | 5 to 50% |  |  | 
10 | Cc1ccc(N[C@@H]2C[C@H](C)Nc3ccc(C)cc32)cc1 (relative stereo) [Compound 5, cis-2,6-dimethyl-N-(p-methylphenyl)-1,2,3,4-tetrahydroquinolin-4-amine] |  |  | 5 to 50% | 5 to 50% | 
11 | COc1ccc(F)cc1C=CC(O)=C1CCCC(=Cc2cc(F)ccc2OC)C1=O [Compound 56, 2-(5-Fluoro-2-methoxybenzylidene)-6-(3-(5-fluoro-2-methoxyphenyl)-1-hydroxyallylidene) cyclohexanone] | < 5% | > 100% |  |  | 
12 | COc1cc(N(C)C)ccc1C=CC(=O)C1CCCC(=Cc2ccc(N(C)C)cc2OC)C1=O (centres unmarked) [Compound 59, 2-(4-N,N-dimethylamino-2-methoxybenzylidene)-6-(3-(4-N,N-dimethylamino-2-methoxyphenyl)acryloyl)cyclohexanone] |  |  |  |  | ALP activity −matrix [1, 4]: − (<5%); ALP activity +matrix [1, 5]: ++ (50-100%)
13 | Cc1ccc(N(C(=O)c2ccccc2)[C@H]2C[C@H](C)N(C(=O)c3ccccc3)c3ccc(C)cc32)cc1 (relative stereo) [Compound 28, trans-1-benzoyl-2,6-dimethyl-N-(p-methylphenyl)-N-benzoyl-1,2,3,4-tetrahydroquinolin-4-amine] |  |  | < 5% | < 5% | 
